Measured values: the supplement of paper PMC10307832

Tests used:
Assay in all cases: relative viability (nuclei count vs DMSO), 5 days (fraction); higher = more cells survive
Zebularine + Luminespib = compound: O=c1ncccn1[C@@H]1O[C@H](CO)[C@@H](O)[C@H]1O [Zebularine] + CCNC(=O)c1noc(-c2cc(C(C)C)c(O)cc2O)c1-c1ccc(CN2CCOCC2)cc1 [Luminespib] (partner 0.01 µM)
Summary of the method: (§1)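 Values are medians from duplicate plates. Each reflects relative viability, defined as the nuclei count of treated wells over that of vehicle wells. Lung cancer cell lines in 1536-well plates were pin-tool dosed one day after seeding with one drug alone or with a fixed anchor-drug dose plus five library-drug doses (not always all listed) in √10 steps, then fixed, stained and imaged at 4× after 5 days.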

BI-D1870 + Crizotinib = compound: CC(C)CCN1c2nc(Nc3cc(F)c(O)c(F)c3)ncc2N(C)C(=O)C1C [BI-D1870] + C[C@@H](Oc1cc(-c2cnn(C3CCNCC3)c2)cnc1N)c1c(Cl)ccc(F)c1Cl [Crizotinib] (partner 1 µM)
Summary of the method: as §1

Zebularine + Dasatinib = compound: O=c1ncccn1[C@@H]1O[C@H](CO)[C@@H](O)[C@H]1O [Zebularine] + Cc1nc(Nc2ncc(C(=O)Nc3c(C)cccc3Cl)s2)cc(N2CCN(CCO)CC2)n1 [Dasatinib] (partner 0.075 µM)
Summary of the method: as §1

Zebularine + Navitoclax = compound: O=c1ncccn1[C@@H]1O[C@H](CO)[C@@H](O)[C@H]1O [Zebularine] + CC1(C)CCC(c2ccc(Cl)cc2)=C(CN2CCN(c3ccc(C(=O)NS(=O)(=O)c4ccc(N[C@H](CCN5CCOCC5)CSc5ccccc5)c(S(=O)(=O)C(F)(F)F)c4)cc3)CC2)C1 [Navitoclax] (partner 0.5 µM)
Summary of the method: as §1

| Cell Line | relative viability (Zebularine + Luminespib; first compound 1 µM) | relative viability (Zebularine + Luminespib; first compound 3.162 µM) | relative viability (Zebularine + Luminespib; first compound 10 µM) | relative viability (Zebularine + Luminespib; first compound 31.62 µM) | relative viability (Zebularine + Luminespib; first compound 100 µM) | relative viability (BI-D1870 + Crizotinib; first compound 0.04 µM) | relative viability (BI-D1870 + Crizotinib; first compound 0.1265 µM) | relative viability (BI-D1870 + Crizotinib; first compound 0.4 µM) | relative viability (BI-D1870 + Crizotinib; first compound 1.265 µM) | relative viability (BI-D1870 + Crizotinib; first compound 4 µM) | relative viability (Zebularine + Dasatinib; first compound 1 µM) | relative viability (Zebularine + Dasatinib; first compound 3.162 µM) | relative viability (Zebularine + Dasatinib; first compound 10 µM) | relative viability (Zebularine + Dasatinib; first compound 31.62 µM) | relative viability (Zebularine + Dasatinib; first compound 100 µM) | relative viability (Zebularine + Navitoclax; first compound 1 µM) | relative viability (Zebularine + Navitoclax; first compound 3.162 µM) | relative viability (Zebularine + Navitoclax; first compound 10 µM) | relative viability (Zebularine + Navitoclax; first compound 31.62 µM) | relative viability (Zebularine + Navitoclax; first compound 100 µM) |
| --- | --- | --- | --- | --- | --- | --- | --- | --- | --- | --- | --- | --- | --- | --- | --- | --- | --- | --- | --- | --- |
| NCI-H1734 | 0.197 | 0.171 | 0.185 | 0.217 | 0.178 | 0.806 | 0.618 | 0.593 | 0.664 | 0.645 | 0.546 | 0.486 | 0.333 | 0.297 | 0.281 | 0.926 | 0.769 | 0.513 | 0.475 | 0.22 |
| NCI-H1755 | 0.481 | 0.426 | 0.39 | 0.522 | 0.44 | 0.977 | 0.838 | 0.876 | 0.829 | 0.762 | 0.494 | 0.452 | 0.342 | 0.49 | 0.435 | 1.14 | 1.04 | 0.773 | 1.01 | 0.444 |
| NCI-H1792 | 0.667 | 0.4 | 0.286 | 0.266 | 0.254 | 1.06 | 0.994 | 0.908 | 1.13 | 0.858 | 0.71 | 0.713 | 0.262 | 0.421 | 0.414 | 0.61 | 0.679 | 0.816 | 0.325 | 0.18 |
| NCI-H1915 | 0.887 | 0.818 | – | 0.772 | 0.322 | 0.932 | 0.835 | 0.962 | 0.935 | 0.881 | 0.362 | 0.328 | – | 0.374 | 0.287 | 0.816 | 0.769 | 0.565 | 0.872 | 0.771 |
| NCI-H1944 | 0.837 | 0.707 | 0.718 | 0.711 | 0.533 | 1.19 | 0.978 | 1.05 | 1.36 | 1.11 | 0.202 | 0.199 | 0.221 | 0.215 | 0.193 | 1.11 | 0.984 | 0.705 | 0.9 | 0.669 |
| NCI-H1975 | 0.249 | 0.196 | 0.241 | 0.199 | 0.14 | 1.05 | 0.988 | 1.01 | 1.03 | 0.484 | 0.328 | 0.408 | 0.253 | 0.247 | 0.173 | 1.13 | 1.08 | 0.64 | 0.575 | 0.229 |
| NCI-H1993 | 0.908 | 0.687 | 0.749 | 0.815 | 0.847 | 0.891 | 0.842 | 0.801 | 0.916 | 0.73 | 0.658 | 0.609 | 0.48 | 0.498 | 0.496 | 0.946 | 0.946 | – | 1.02 | 0.754 |
| NCI-H2009 | 1.09 | 1.04 | 0.793 | 0.859 | 0.3 | 1.06 | 0.996 | 0.962 | 0.609 | 0.457 | 0.371 | 0.316 | 0.263 | 0.309 | 0.231 | 1.12 | 1.13 | 0.951 | 0.876 | 0.358 |
